According to patent publication US11497746B2, “Pharmaceutical combinations comprising a histone deacetylase inhibitor and a programmed death-ligand 1 (PD-L1) inhibitor and methods of use thereof” (Acetylon Pharmaceuticals, Inc., priority 2016, dated 2022):

Key:
[1] = system: H929 multiple myeloma cells; experiment: PD-L1 expression by flow cytometry in H929 cells; format: cell-based; details: Compound A 1 μM and 2 μM, 48 hours, flow cytometry (FIG. 1)
Method: After bone marrow aspiration, fresh bone marrow mononuclear cells (MNC) were obtained by ammonium chloride based-lyses of red cells followed by washing in phosphate-buffered saline (PBS). For ADCC assays, cells were immediately incubated with anti-PD-L1 antibody (BMS-936559, also referred to herein as “MDX-1105” 1 μg/mL) in the presence of Compound A or Compound B in complete medium in 96-well plate. The cells were incubated for 72 h at 37° C. in a 5% CO2 environment. The viability of primary MM cells in BM MNC was determined by near infrared (n-IR) viability dyes. The surviving CD138+ MM cells were enumerated in the presence of Flow-Count Fluorospheres (Beckman Coulter, CA, USA), to determine absolute numbers of viable MM cells. Phenotypic analyses of MNC were performed using a single 5-color combination of monoclonal antibodies containing BV421/PD-L1(CD274)-BV711 (BD Biosciences, San Jose, Calif., USA). PD-L1 on plasma cells was determined using a commercial assay (BD Biosciences, San Jose, Calif., USA). After incubation, cells were washed twice in PBS containing 2% BSA, and then re-suspended in PBS for analysis on a Fortessa cytometer (Becton Dickinson, Mountain View, Calif.). MM cell lines were also applied to this method in some experiments. […]

[2] = system: MM.1S, H929, KMS12-PE, OPM1 and U266 multiple myeloma cells; experiment: PD-L1 expression in a panel of multiple myeloma cell lines; format: cell-based; details: 2 μM, 48 hours (FIG. 2)
Method: After bone marrow aspiration, fresh bone marrow mononuclear cells (MNC) were obtained by ammonium chloride based-lyses of red cells followed by washing in phosphate-buffered saline (PBS). For ADCC assays, cells were immediately incubated with anti-PD-L1 antibody (BMS-936559, also referred to herein as “MDX-1105” 1 μg/mL) in the presence of Compound A or Compound B in complete medium in 96-well plate. […] The viability of primary MM cells in BM MNC was determined by near infrared (n-IR) viability dyes. The surviving CD138+ MM cells were enumerated in the presence of Flow-Count Fluorospheres (Beckman Coulter, CA, USA), to determine absolute numbers of viable MM cells. Phenotypic analyses of MNC were performed using a single 5-color combination of monoclonal antibodies containing BV421/PD-L1(CD274)-BV711 (BD Biosciences, San Jose, Calif., USA). PD-L1 on plasma cells was determined using a commercial assay (BD Biosciences, San Jose, Calif., USA). After incubation, cells were washed twice in PBS containing 2% BSA, and then re-suspended in PBS for analysis on a Fortessa cytometer (Becton Dickinson, Mountain View, Calif.). MM cell lines were also applied to this method in some experiments.

[3] = system: U266 cells; experiment: PD-L1 expression in U266 cells cultured in stromal cell supernatant; format: cell-based; details: Compound B 1 μM, 48 hours, FCM (FIG. 3)
Method: Mononuclear cells separated by Ficoll-Hypaque density sedimentation from bone marrow aspirates were cultured in 15% FBS-RPMI1640 for 5-6 weeks to establish long-term bone marrow stromal cells. Culture supernatant from BMSCs was used for stimulation of MM cell lines.
(§1) After bone marrow aspiration, fresh bone marrow mononuclear cells (MNC) were obtained by ammonium chloride based-lyses of red cells followed by washing in phosphate-buffered saline (PBS). For ADCC assays, cells were immediately incubated with anti-PD-L1 antibody (BMS-936559, also referred to herein as “MDX-1105” 1 μg/mL) in the presence of Compound A or Compound B in complete medium in 96-well plate. The cells were incubated for 72 h at 37° C. in a 5% CO2 environment. The viability of primary MM cells in BM MNC was determined by near infrared (n-IR) viability dyes. The surviving CD138+ MM cells were enumerated in the presence of Flow-Count Fluorospheres (Beckman Coulter, CA, USA), to determine absolute numbers of viable MM cells. […] PD-L1 on plasma cells was determined using a commercial assay (BD Biosciences, San Jose, Calif., USA). […]
To determine the effect stromal cell priming has on PD-L1 expression in U266 cells treated with Compound B, U266 cells were cultured in stromal cell supernatant (sup) in the presence or absence of Compound B (1 μM) for 48 hours. PD-L1 expression was assessed by FCM. […]

[4] = system: U266 cells; experiment: anti-PD-L1 antibody-dependent cell-mediated cytotoxicity in U266 cells; format: cell-based; details: Compound B 1 μM plus stromal cell supernatant 48 hours, then anti-PD-L1 antibody 1 μg/ml and PBMC (E/T=15/1 and 30/1) 5 hours, FCM (FIG. 4)
Method: Multiple myeloma cells were incubated with Calcein-AM (Invitrogen, 2 μg/ml/1 million cells) for 30 min at 37° C. After washing, the cells were used for target cells. Mononuclear cells were obtained from healthy volunteer peripheral blood by Ficoll-Paque density centrifugation and used for effector cells. […] Percent specific lysis was calculated as follows, % specific lysis=[experiment fluorescence−spontaneous fluorescence (no effector)]/[complete lysis (100% killing by detergent)−spontaneous fluorescence (no effector)]×100.
as §1

[5] = system: H929 cells; experiment: anti-PD-L1 antibody-dependent cell-mediated cytotoxicity in H929 cells; format: cell-based; details: H929 cells with PBMCs, Compound B alone 0.25, 0.5, 1 μM, 72 h, then anti-PD-L1 antibody 0.5 μg/ml 3 h, FCM (FIG. 7)
Method: After bone marrow aspiration, fresh bone marrow mononuclear cells (MNC) were obtained by ammonium chloride based-lyses of red cells followed by washing in phosphate-buffered saline (PBS). For ADCC assays, cells were immediately incubated with anti-PD-L1 antibody (BMS-936559, also referred to herein as “MDX-1105” 1 μg/mL) in the presence of Compound A or Compound B in complete medium in 96-well plate. The cells were incubated for 72 h at 37° C. in a 5% CO2 environment. The viability of primary MM cells in BM MNC was determined by near infrared (n-IR) viability dyes. […] PD-L1 on plasma cells was determined using a commercial assay (BD Biosciences, San Jose, Calif., USA). […]
To assess the effect of Compound B in combination with pomalidomide on ADCC using anti-PD-L1 antibody-dependent cell-mediated cytotoxicity in H929 cells, H929 cells were stained with carboxyfluorescein succinimidyl ester (CFSE) and cultured with PBMCs in the presence or absence of pomalidomide (0.1 μM), Compound B (0.25, 0.5, 1 μM) for 72 hours. […] Cytotoxicity was assessed by FCM. […]
H929 cells were stained with CFSE and cultured with PBMCs in the presence or absence of pomalidomide (0.1 μM), Compound B (0.25, 0.5, 1 μM) for 72 h. […] Cytotoxicity was assessed by FCM (FIG. 7). […]

[6] = system: Mononuclear cells from MM patients' bone marrow aspirates; experiment: anti-PD-L1 antibody induced cytotoxicity, autologous setting, ex vivo; format: cell-based, human; details: anti-PD-L1 Ab 0.5 μg/ml, Compound B 0.5 μM, 72 h (FIG. 8 and FIG. 9)
Method: After bone marrow aspiration, fresh bone marrow mononuclear cells (MNC) were obtained by ammonium chloride based-lyses of red cells followed by washing in phosphate-buffered saline (PBS). […] The cells were incubated for 72 h at 37° C. in a 5% CO2 environment. The viability of primary MM cells in BM MNC was determined by near infrared (n-IR) viability dyes. The surviving CD138+ MM cells were enumerated in the presence of Flow-Count Fluorospheres (Beckman Coulter, CA, USA), to determine absolute numbers of viable MM cells. Phenotypic analyses of MNC were performed using a single 5-color combination of monoclonal antibodies containing BV421/PD-L1(CD274)-BV711 (BD Biosciences, San Jose, Calif., USA). PD-L1 on plasma cells was determined using a commercial assay (BD Biosciences, San Jose, Calif., USA). After incubation, cells were washed twice in PBS containing 2% BSA, and then re-suspended in PBS for analysis on a Fortessa cytometer (Becton Dickinson, Mountain View, Calif.). MM cell lines were also applied to this method in some experiments.
H929 cells were stained with CFSE and cultured with PBMCs in the presence or absence of pomalidomide (0.1 μM), Compound B (0.25, 0.5, 1 μM) for 72 h. The cells were then incubated with Ab (0.5 μg/ml PD-L1) for 3 h. Cytotoxicity was assessed by FCM (FIG. 7). […]

[7] = system: RPMI8226 cells; experiment: anti-PD-L1 antibody-dependent cell-mediated cytotoxicity in RPMI8226 cells; format: cell-based; details: RPMI8226 cells with PBMCs (E/T=15/1), pomalidomide 0.1 μM 72 hours, then anti-PD-L1 antibody 0.5 μg/ml 3 hours, FCM (FIG. 5)
Method: After bone marrow aspiration, fresh bone marrow mononuclear cells (MNC) were obtained by ammonium chloride based-lyses of red cells followed by washing in phosphate-buffered saline (PBS). For ADCC assays, cells were immediately incubated with anti-PD-L1 antibody (BMS-936559, also referred to herein as “MDX-1105” 1 μg/mL) in the presence of Compound A or Compound B in complete medium in 96-well plate. The cells were incubated for 72 h at 37° C. in a 5% CO2 environment. The viability of primary MM cells in BM MNC was determined by near infrared (n-IR) viability dyes. The surviving CD138+ MM cells were enumerated in the presence of Flow-Count Fluorospheres (Beckman Coulter, CA, USA), to determine absolute numbers of viable MM cells. Phenotypic analyses of MNC were performed using a single 5-color combination of monoclonal antibodies containing BV421/PD-L1(CD274)-BV711 (BD Biosciences, San Jose, Calif., USA). PD-L1 on plasma cells was determined using a commercial assay (BD Biosciences, San Jose, Calif., USA). […]
Similarly, RPMI8226 cells were cultured with PBMCs (E/T=15/1) in the presence or absence of pomalidomide (Pom, 0.1 μM) for 72 hours. After subsequent cultivation with anti-PD-L1 antibody (0.5 μg/ml) for 3 hours, percent specific killing was assessed by FCM. […]

SMILES: O=C(CCCCCCNC(=O)c1cnc(N(c2ccccc2)c2ccccc2)nc1)NO [Compound A, 2-(diphenylamino)-N-(7-(hydroxyamino)-7-oxoheptyl)pyrimidine-5-carboxamide]
- PD-L1 expression [1]: increased

SMILES: O=C(CCCCCCNC(=O)c1cnc(N(c2ccccc2)c2ccccc2Cl)nc1)NO [Compound B, 2-((2-chlorophenyl)(phenyl)amino)-N-(7-(hydroxyamino)-7-oxoheptyl)pyrimidine-5-carboxamide]
- PD-L1 expression [2]: enhanced
- PD-L1 expression [3]: highest
- percent specific lysis [4]: greatest
- anti-PD-L1 Ab-induced cytotoxicity [5]: enhanced
- anti-PD-L1 antibody induced-cytotoxicity [6]: enhanced

SMILES: Nc1cccc2c1C(=O)N(C1CCC(=O)NC1=O)C2=O (stereo not shown) [Pomalidomide, pomalidomide]
- percent specific killing (cytotoxicity) [7]: enhanced
